Series [1] deals with Normotensive rats. The experiment in a line: hypotensive effect in conscious normotensive rats (Table 2). The following applies: os. Type of series: in vivo. An excerpt: (§1) As it is shown in Table 2, the decrease of the systolic median blood pressure was long lasting and the length of the effect was dose-related.
The test system of series [2] is SHR Rats. Description: hypotensive effect in conscious spontaneously hypertensive rats (Table 2). The format is in vivo. On the set-up: ΔBP sist: unit not given here.
Description: as §1

Series [3] in a line: acute toxicity in mice (LD50). The following applies: mouse, in vivo. The protocol: First of all, the compounds of the present invention are characterized by a low acute toxicity and a very favourable therapeutic index.
The compounds were administered by oral and intraperitoneal route.

Series [4] relates to paw edema induced by carrageenin. The experiment in a line: paw edema induced by carrageenin. The format is in vivo. The note with it: 20, 60 and 200 mg/kg; for reducing the paw edema induced by carrageenin: oral route; for activity in paw edema relative to ASA: oral, more active than ASA. In general terms: Carrageenan injected into the paw causes an acute inflammation.
The subject of series [5] is conscious normal and in spontaneously hypertensive rats. Description: hypotensive effect in conscious normal and spontaneously hypertensive rats. The format is in vivo. The protocol:
This is particularly the case of compounds like as BBR-1511, 1513 and 1509 which show only a little (5-8 mmHg) even if prolonged hypotensive effect when tested in conscious normal and in spontaneously hypertensive rats at doses ranging from 100 to 200 mg/kg by intraperitoneal route.

For series [6], the system named is sudden death induced by arachidonate in mice. The experiment in a line: protection against sudden death induced by arachidonate in mice. Type of series: in vivo. The following applies: oral; for increase of protection as compared with ASA: screening dosage 20 mg/kg vs ASA 200 mg/kg; for protection against sudden death compared with ASA: 20 mg/kg vs ASA 200 mg/kg. An excerpt: The same compounds from BBR-1507 to BBR-1513, given orally, protected against sudden death induced by arachidonate in mice.

The test system of series [7] is platelet-rich plasma (PRP) from guinea pigs. Description: in vitro platelet aggregation in platelet-rich plasma, Born aggregometer. The format is cell-based. The following applies: vs ASA.
Series [8] has as its system sudden death induced by arachidonate in mice. The experiment in a line: protection against sudden death induced by arachidonate in mice. The following applies: vs ASA.
Where [9] appears, read: intraperitoneal and oral, conscious normotensive and SHR rats, qualitative.
[10] abbreviates: conscious normal and SHR rats, 100 to 200 mg/kg, intraperitoneal, prolonged.

Where only a bound is given, the exact number is not on record here.

What is called LD50 is the dose expected to kill half of the subjects tested. On to `CC(=O)Nc1ccc2c(c1)CC1CC(=O)NN=C21` (racemic) [BBR-1507, dl-7-acetylamino-4,4a-dihydro-5H-indeno-[1,2-c]pyridazin-3-one], for which the “duration” value in series [1] (6.25 mg/kg) was 3 h; in series [1] (12.5 mg/kg), 3 h; in series [2] (i.p., 50 mg/kg) it was over 4 h; in series [2] (os, 1.56 mg/kg), 1.5 h; in series [2] (os, 3.125 mg/kg) it was 3 h; in series [2] (os, 6.25 mg/kg) it was over 4 h. For the same compound, the “duration” value in series [2] (os, 12.5 mg/kg) was 5.6 h. For the same compound, the ΔBP sist in series [1] (6.25 mg/kg) is reported as -8; in series [1] (12.5 mg/kg), -26; in series [2] (i.p., 50 mg/kg), -55; in series [2] (os, 1.56 mg/kg), -18; in series [2] (os, 3.125 mg/kg) it was -25; in series [2] (os, 6.25 mg/kg) it was -50. Also, in series [2] (os, 12.5 mg/kg), the ΔBP sist was -58. The median lethal dose (LD50) in series [3] (ip) is 310 mg/kg; in series [3] (po, os), over 1000 mg/kg. In addition, the “reducing the paw edema induced by carrageenin” value (from here on “reducing the paw edema induced”) in series [4] was “effective in reducing the paw edema”. The “activity in paw edema relative to ASA” value in series [4] is recorded as 1.5-2 times. Further, the hypotensive effect result in series [5] (setting [9]) was “more evident and prolonged hypotensive effect”. Further, the “increase of protection as compared with ASA” value (“increase of protection” for short) in series [6] is 20-30%.

`CC(=O)Nc1ccc2c(c1)CCC1CC(=O)NN=C21` (racemic) [BBR-1508, dl-8-acetylamino-4,4a,5,6-tetrahydro-2H-benzo(h)-cinnolin-3-one]: the ΔBP sist entry in series [1] (3.125 mg/kg) is “inactive”; in series [1] (6.25 mg/kg), -8; in series [1] (12.5 mg/kg), -20; in series [1] (25 mg/kg) it was -48; in series [2] (i.p., 12.5 mg/kg) it was -50; in series [2] (i.p., 25 mg/kg), -90. In addition, the ΔBP sist in series [2] (os, 3.125 mg/kg) is -30; in series [2] (os, 6.25 mg/kg), -30; in series [2] (os, 12.5 mg/kg), -55; in series [2] (os, 25 mg/kg), -65. Also, the “duration” value in series [1] (6.25 mg/kg) amounted to 1.5 h; in series [1] (12.5 mg/kg), 4 h; in series [1] (25 mg/kg) it was 4 h; in series [2] (i.p., 12.5 mg/kg), 3 h; in series [2] (i.p., 25 mg/kg) it was 3 h; in series [2] (os, 3.125 mg/kg), 2 h. For the same compound, the “duration” value in series [2] (os, 6.25 mg/kg) was found to be 4 h; in series [2] (os, 12.5 mg/kg), 4.6 h; in series [2] (os, 25 mg/kg) it was 4.6 h. Also, the LD50 in series [3] (ip) is 360 mg/kg; in series [3] (po, os), over 1000 mg/kg. Also, the “reducing the paw edema induced” value in series [4] was “effective in reducing the paw edema”. Further, the “activity in paw edema relative to ASA” value in series [4] is on record as 1.5-2 times. Besides, in series [5] (setting [9]), the hypotensive effect result is “more evident and prolonged hypotensive effect”. In addition, the “increase of protection” value in series [6] came out at 40%.

On to `CC(=O)Nc1ccc2c(c1)CCCC1CC(=O)NN=C21` (racemic) [BBR-1509, dl-8-acetylamino-2,4,4a,5,6,7-hexahydro-3H-benzo[6,7]-cyclohepten[1,2-c]-pyridazin-3-one], for which the 50% lethal dose (LD50) is over 1000 mg/kg in series [3] (ip) and over 1000 mg/kg in series [3] (po, os). The “inhibiting platelet aggregation in vitro compared with ASA” value in series [7] is “at least equiactive as ASA”. Also, the “reducing the paw edema induced” value in series [4] was “inactive”. In addition, the hypotensive effect in series [5] (setting [10]) was 5-8 mmHg. In addition, in series [8], the “inhibiting platelet aggregation in vivo compared with ASA” value was “at least equiactive as ASA”. In series [6], the “protection against sudden death compared with ASA” value is listed as “equiactive as acetylsalicylic acid (ASA)”.

Consider `Nc1ccc2c(c1)CCC1CC(=O)NN=C21` (racemic) [BBR-1510, dl-8-amino-4,4a,5,6-tetrahydro-2H-benzo(h)-cinnolin-3-one], for which the “duration” value in series [1] (12.5 mg/kg) was over 6 h; in series [2] (i.p., 6.25 mg/kg), 1 h; in series [2] (i.p., 12.5 mg/kg), over 4 h; in series [2] (os, 1.56 mg/kg), 1 h; in series [2] (os, 3.125 mg/kg) it was 2 h; in series [2] (os, 6.25 mg/kg), 3.4 h. Besides, in series [2] (os, 12.5 mg/kg), the “duration” value is over 3 h. The ΔBP sist is listed as -28 in series [1] (12.5 mg/kg); -55 in series [2] (i.p., 6.25 mg/kg); -80 in series [2] (i.p., 12.5 mg/kg); -48 in series [2] (os, 1.56 mg/kg); -46 in series [2] (os, 3.125 mg/kg); -40 in series [2] (os, 6.25 mg/kg). Besides, in series [2] (os, 12.5 mg/kg), the ΔBP sist is -60. Also, the LD50 in series [3] (ip) was 610 mg/kg; in series [3] (po, os) it was over 1000 mg/kg. Also, in series [4], the “reducing the paw edema induced” value is “effective in reducing the paw edema”. Further, the “activity in paw edema relative to ASA” value in series [4] is recorded as 1.5-2 times. Also, in series [5] (setting [9]), the hypotensive effect entry is “more evident and prolonged hypotensive effect”. For the same compound, the “increase of protection” value in series [6] was 20-30%.

`CCCCN1N=C2c3ccc(N)cc3CCC2CC1=O` (racemic) [BBR-1511]: the 50% lethal dose (LD50) in series [3] (ip) was 1000 mg/kg; in series [3] (po, os) it was over 1000 mg/kg. Moreover, in series [5] (setting [10]), the hypotensive effect is on record as 5-8 mmHg. Moreover, the “protection against sudden death compared with ASA” value in series [6] is listed as “equiactive as acetylsalicylic acid (ASA)”.

`Nc1ccc2c(c1)CC1CC(=O)NN=C21` (racemic) [BBR-1512, dl-7-amino-4,4a-dihydro-5H-indeno[1,2-c]-pyridazin-3-one]: the LD50 worked out at 200 mg/kg in series [3] (ip) and 400 mg/kg in series [3] (po, os). In series [6], the “increase of protection” value is recorded as 20-30%.

For `Nc1ccc2c(c1)CCCC1CC(=O)NN=C21` (racemic) [BBR-1513, dl-9-amino-2,4,4a,5,6,7-hexahydro-3H-benzo-[6,7]-cyclohepten[1,2-c]-pyridazin-3-one], the LD50 is 483 mg/kg in series [3] (ip) and 700 mg/kg in series [3] (po, os). In addition, the “inhibiting platelet aggregation in vitro compared with ASA” value in series [7] was “at least equiactive as ASA”. The “reducing the paw edema induced” value in series [4] was “scarcely effective”. In series [5] (setting [10]), the hypotensive effect is 5-8 mmHg. In addition, the “inhibiting platelet aggregation in vivo compared with ASA” value in series [8] is reported as “at least equiactive as ASA”. In addition, the “protection against sudden death compared with ASA” value in series [6] is listed as “equiactive as acetylsalicylic acid (ASA)”.

Regarding `O=C1CC2CCc3cc(NC(=O)CCl)ccc3C2=NN1` (racemic) [BBR-1514, dl-8-chloroacetylamino-4,4a,5,6-tetrahydro-2H-benzo(h)-cinnolin-3-one], the median lethal dose (LD50) in series [3] (ip) is over 1000 mg/kg; in series [3] (po, os) it was over 1000 mg/kg. The “inhibiting platelet aggregation in vitro compared with ASA” value in series [7] is “at least equiactive as ASA”. The “reducing the paw edema induced” value in series [4] was “inactive”. For the same compound, in series [8], the “inhibiting platelet aggregation in vivo compared with ASA” value is recorded as “at least equiactive as ASA”.

For the origin of these results see patent publication US4692447A, “Tricyclic dihydropyridazinones and pharmaceutical compositions containing them” (Boehringer Biochemia Robin, S.p.A., priority 1984, dated 1987).
